Measurements taken from patent US20220169643A1, “ESTROGEN RECEPTOR DEGRADING PROTACS” (AstraZeneca AB, priority 2019, published 2022).

biological target: T1, Estrogen Receptor Alpha Ligand binding domain (ER alpha-LBD (GST)) (Homo sapiens, UniProt P03372); test: ERα Binding Assay (LanthaScreen TR-FRET competition); settings: competitive displacement of Fluormone ES2 tracer from recombinant human ER alpha-LBD (residues 307-554), 4 hours at room temperature
T1 construct: made in house
T1 sequence (P03372 307-554): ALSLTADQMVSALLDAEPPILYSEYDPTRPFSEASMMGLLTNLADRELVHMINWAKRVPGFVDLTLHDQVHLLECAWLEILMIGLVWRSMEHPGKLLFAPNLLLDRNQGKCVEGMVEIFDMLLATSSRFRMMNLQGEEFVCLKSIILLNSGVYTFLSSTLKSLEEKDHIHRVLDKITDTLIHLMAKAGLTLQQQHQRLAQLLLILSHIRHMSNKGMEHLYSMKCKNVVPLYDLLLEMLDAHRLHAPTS
Procedure: The ability of compounds to bind to isolated Estrogen Receptor Alpha Ligand binding domain (ER alpha-LBD (GST)) was assessed in competition assays using a LanthaScreen™ Time-Resolved Fluorescence Resonance Energy Transfer (TR-FRET) detection end-point. For the LanthaScreen TR-FRET endpoint, a suitable fluorophore (Fluormone ES2, ThermoFisher, Product code P2645) and recombinant human Estrogen Receptor alpha ligand binding domain, residues 307-554 (expressed and purified in-house) were used to measure compound binding. The assay principle is that ER alpha-LBD (GST) is added to a fluorescent ligand to form a receptor/fluorophore complex. A terbium-labelled anti-GST antibody (Product code PV3551) is used to indirectly label the receptor by binding to its GST tag, and competitive binding is detected by a test compound's ability to displace the fluorescent ligand, resulting in a loss of TR-FRET signal between the Th-anti-GST antibody and the tracer. The assay was performed as follows with all reagent additions carried out using the Beckman Coulter BioRAPTR FRD microfluidic workstation: • 1. Acoustic dispense 120 nL of the test compound into a black low volume 384 well assay plates. • 2. Prepare 1×ER alpha-LBD/Tb-anti-GST Ab in ES2 screening buffer and incubate for 15 minutes. • 3. Dispense 6 μL of the 1×[…]/Th-anti-GST Ab reagent into each well of the assay plate followed by 6 μL of Fluorophore reagent into each well of the assay plate • 4. Cover the assay plate to protect the reagents from light and evaporation, and incubate at room temperature for 4 hours. • 5. Excite at 337 nm and measure the fluorescent emission signal of each well at 490 nm and 520 nm using the BMG PheraSTAR.
Compounds were dosed directly from a compound source microplate containing serially diluted compound (4 wells containing 10 mM, […] and 10 nM final compound respectively) to an assay microplate using the Labcyte Echo 550. The Echo 550 is a liquid handler that uses acoustic technology to perform direct microplate-to-microplate transfers of DMSO compound solutions and the system can be programmed to transfer multiple small nL volumes of compound from the different source plate wells to give the desired serial dilution of compound in the assay which is then back-filled to normalise the DMSO concentration across the dilution range.
In total 120 nL of compound plus DMSO were added to each well and compounds were tested in a 12-point concentration response format over a final compound concentration range of 10, 2.917, 1.042, 0.2083, 0.1, 0.0292, 0.0104, 0.002083, 0.001, 0.0002917, 0.0001042, and 0.00001 μM respectively. TR-FRET dose response data obtained with each compound was exported into a suitable software package (such as Origin or Genedata) to perform curve fitting analysis. Competitive ER alpha binding was expressed as an IC50 value. This was determined by calculation of the concentration of compound that was required to give a 50% reduction in tracer compound binding to ER alpha-LBD.

Row | SMILES | IC50 [nM]
1 | C[C@@H]1Cc2c([nH]c3ccccc23)[C@@H](c2cnc(N3CCC(CCN4CCN(c5ccc6c(c5)CN(C5CCC(=O)NC5=O)C6=O)CC4)CC3)nc2)N1CC(C)(C)F (stereo partly drawn) [Example 2, 3-[5-[4-[2-[1-[5-[(1R,3R)-2-(2-Fluoro-2-methyl-propyl)-3-methyl-1,3,4,9-tetrahydropyrido[3,4-b]indol-1-yl]pyrimidin-2-yl]-4-piperidyl]ethyl]piperazin-1-yl]-1-oxo-isoindolin-2-yl]piperidine-2,6-dione] | 3.3
2 | C[C@@H]1Cc2c([nH]c3ccccc23)[C@@H](c2cnc(N3CCC(CCCN4CCN(c5ccc6c(c5)CN(C5CCC(=O)NC5=O)C6=O)CC4)CC3)nc2)N1CC(C)(C)F (stereo partly drawn) [Example 8, 3-(5-{4-[3-(1-{5-[(1R,3R)-2-(2-fluoro-2-methylpropyl)-3-methyl-2,3,4,9-tetrahydro-1H-beta-carbolin-1-yl]pyrimidin-2-yl}piperidin-4-yl)propyl]piperazin-1-yl}-1-oxo-1,3-dihydro-2H-isoindol-2-yl)piperidine-2,6-dione] | 4.3
3 | C[C@@H]1Cc2c([nH]c3ccccc23)[C@@H](c2cnc(N3CCC4(CCN(CCN5CCN(c6ccc7c(c6)CN(C6CCC(=O)NC6=O)C7=O)CC5=O)CC4)CC3)nc2)N1CC(C)(C)F (stereo partly drawn) [Example 26, 3-(5-{4-[2-(9-{5-[(1R,3R)-2-(2-fluoro-2-methylpropyl)-3-methyl-2,3,4,9-tetrahydro-1H-beta-carbolin-1-yl]pyrimidin-2-yl}-3,9-diazaspiro[5.5]undecan-3-yl)ethyl]-3-oxopiperazin-1-yl}-1-oxo-1,3-dihydro-2H-isoindol-2-yl)piperidine-2,6-dione] | 18
4 | C[C@@H]1Cc2c([nH]c3ccccc23)[C@@H](c2cnc(N3CCC(CCN4CCN(c5ccc6c(c5)CN(C5CCC(=O)NC5=O)C6=O)CC4)CC3)nc2)N1CC(F)(F)F (stereo partly drawn) [Example 15, 3-(5-{4-[2-(1-{5-[(1R,3R)-3-methyl-2-(2,2,2-trifluoroethyl)-2,3,4,9-tetrahydro-1H-beta-carbolin-1-yl]pyrimidin-2-yl}piperidin-4-yl)ethyl]piperazin-1-yl}-1-oxo-1,3-dihydro-2H-isoindol-2-yl)piperidine-2,6-dione] | 3.7
5 | C[C@@H]1Cc2c([nH]c3ccccc23)[C@@H](c2cnc(N3CCC4(CCN(CC5CCN(c6ccc7c(c6)CN(C6CCC(=O)NC6=O)C7=O)CC5)CC4)CC3)nc2)N1CC(C)(C)F (stereo partly drawn) [Example 9, 3-(5-{4-[(9-{5-[(1R,3R)-2-(2-fluoro-2-methylpropyl)-3-methyl-2,3,4,9-tetrahydro-1H-beta-carbolin-1-yl]pyrimidin-2-yl}-3,9-diazaspiro[5.5]undecan-3-yl)methyl]piperidin-1-yl}-1-oxo-1,3-dihydro-2H-isoindol-2-yl)piperidine-2,6-dione] | 8.7
6 | C[C@@H]1Cc2c([nH]c3ccccc23)[C@@H](c2cnc(N3CCC(CN(C)C4CN(CC5CCN(c6ccc7c(c6)CN(C6CCC(=O)NC6=O)C7=O)CC5)C4)CC3)nc2)N1CC(C)(C)F (stereo partly drawn) [Example 16, 3-(5-{4-[(3-{[(1-{5-[(1R,3R)-2-(2-fluoro-2-methylpropyl)-3-methyl-2,3,4,9-tetrahydro-1H-beta-carbolin-1-yl]pyrimidin-2-yl}piperidin-4-yl)methyl](methyl)amino}azetidin-1-yl)methyl]piperidin-1-yl}-1-oxo-1,3-dihydro-2H-isoindol-2-yl)piperidine-2,6-dione] | 3
7 | C[C@@H]1Cc2c([nH]c3ccccc23)[C@@H](c2cnc(N3CCC(OCCCN4CCN(c5ccc6c(c5)CN(C5CCC(=O)NC5=O)C6=O)CC4)CC3)nc2)N1CC(C)(C)F (stereo partly drawn) [Example 38, 3-[5-(4-{3-[(1-{5-[(1R,3R)-2-(2-fluoro-2-methylpropyl)-3-methyl-2,3,4,9-tetrahydro-1H-beta-carbolin-1-yl]pyrimidin-2-yl}piperidin-4-yl)oxy]propyl}piperazin-1-yl)-1-oxo-1,3-dihydro-2H-isoindol-2-yl]piperidine-2,6-dione] | 3.6
8 | C[C@@H]1Cc2c([nH]c3ccccc23)[C@@H](c2cnc(N3CCC(CN4CCN(c5ccc6c(c5)CN(C5CCC(=O)NC5=O)C6=O)CC4)CC3)nc2)N1CC(C)(C)F (stereo partly drawn) [Example 1, 3-[5-[4-[[1-[5-[(1R,3R)-2-(2-Fluoro-2-methyl-propyl)-3-methyl-1,3,4,9-tetrahydropyrido[3,4-b]indol-1-yl]pyrimidin-2-yl]-4-piperidyl]methyl]piperazin-1-yl]-1-oxo-isoindolin-2-yl]piperidine-2,6-dione] | 3.1
9 | C[C@@H]1Cc2c([nH]c3ccccc23)[C@@H](c2cnc(N3CCC(CN4CCOC5(CC4)CCN(c4ccc6c(c4)CN(C4CCC(=O)NC4=O)C6=O)CC5)CC3)nc2)N1CC(C)(C)F (stereo partly drawn) [Example 19, 3-(5-{10-[(1-{5-[(1R,3R)-2-(2-fluoro-2-methylpropyl)-3-methyl-2,3,4,9-tetrahydro-1H-beta-carbolin-1-yl]pyrimidin-2-yl}piperidin-4-yl)methyl]-7-oxa-3,10-diazaspiro[5.6]dodecan-3-yl}-1-oxo-1,3-dihydro-2H-isoindol-2-yl)piperidine-2,6-dione] | 5.3
10 | C[C@@H]1Cc2c([nH]c3ccccc23)[C@@H](c2cnc(N3CCC(CN4CCC(CN5CCN(c6ccc7c(c6)CN(C6CCC(=O)NC6=O)C7=O)CC5)CC4)CC3)nc2)N1CC(C)(C)F (stereo partly drawn) [Example 14, 3-{5-[4-({1-[(1-{5-[(1R,3R)-2-(2-fluoro-2-methylpropyl)-3-methyl-2,3,4,9-tetrahydro-1H-beta-carbolin-1-yl]pyrimidin-2-yl}piperidin-4-yl)methyl]piperidin-4-yl}methyl)piperazin-1-yl]-1-oxo-1,3-dihydro-2H-isoindol-2-yl}piperidine-2,6-dione] | 8.5
11 | COc1cc(N2CCN(CC3CCN(c4ncc([C@@H]5c6[nH]c7ccccc7c6C[C@@H](C)N5CC(C)(C)F)cn4)CC3)CC2)cc2c1C(=O)N(C1CCC(=O)NC1=O)C2 (stereo partly drawn) [Example 39, 3-(5-{4-[(1-{5-[(1R,3R)-2-(2-fluoro-2-methylpropyl)-3-methyl-2,3,4,9-tetrahydro-1H-beta-carbolin-1-yl]pyrimidin-2-yl}piperidin-4-yl)methyl]piperazin-1-yl}-7-methoxy-1-oxo-1,3-dihydro-2H-isoindol-2-yl)piperidine-2,6-dione] | 3.2
12 | C[C@@H]1Cc2c([nH]c3ccccc23)[C@@H](c2cnc(N3CCC(CN4CCN(c5ccc6c(c5)C(=O)N(C5CCC(=O)NC5=O)C6=O)CC4)CC3)nc2)N1CC(C)(C)F (stereo partly drawn) [Example 3, 2-[2,6-Dioxo3-piperidyl]-5-[4-[[1-[5-[(1R,3R)-2-(2-fluoro-2-methyl-propyl)-3-methyl-1,3,4,9-tetrahydropyrido[3,4-b]indol-1-yl]pyrimidin-2-yl]-4-piperidyl]methyl]piperazin-1-yl]isoindoline-1,3-dione] | 3.7
13 | C[C@@H]1Cc2c([nH]c3ccccc23)[C@@H](c2ccc(N3CCC(CN4CCC5(CC4)CCN(c4ccc6c(c4)CN(C4CCC(=O)NC4=O)C6=O)CC5)CC3)cn2)N1CC(C)(C)F (stereo partly drawn) [Example 21, 3-(5-{9-[(1-{6-[(1S,3R)-2-(2-fluoro-2-methylpropyl)-3-methyl-2,3,4,9-tetrahydro-1H-beta-carbolin-1-yl]pyridin-3-yl}piperidin-4-yl)methyl]-3,9-diazaspiro[5.5]undecan-3-yl}-1-oxo-1,3-dihydro-2H-isoindol-2-yl)piperidine-2,6-dione] | 7.6
14 | C[C@@H]1Cc2c([nH]c3ccccc23)[C@@H](c2cnc(OC3CCC4(CC3)CCN(CC3CCN(c5ccc6c(c5)CN(C5CCC(=O)NC5=O)C6=O)CC3)CC4)nc2)N1CC(C)(C)F (stereo partly drawn) [Example 41, 3-[5-(4-{[9-({5-[(1R,3R)-2-(2-fluoro-2-methylpropyl)-3-methyl-2,3,4,9-tetrahydro-1H-beta-carbolin-1-yl]pyrimidin-2-yl}oxy)-3-azaspiro[5.5]undecan-3-yl]methyl}piperidin-1-yl)-1-oxo-1,3-dihydro-2H-isoindol-2-yl]piperidine-2,6-dione] | 2.2
